Experiment [1] concerns the target Aryl hydrocarbon receptor (Homo sapiens, UniProt P35869). Conditions: Potency.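 Also: confirmatory quantitative high-throughput screen measuring activation of the AhR signaling pathway.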
A further experiment deals with Escherichia coli. In words: microbe, parasite or virus in culture.
The target in experiment [2] is Ras and Rab interactor 1/Tyrosine-protein kinase ABL1 (Homo sapiens, UniProt P00519+Q13671). It is filed as functional.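 Also: biochemical TR-FRET dose-response test measuring inhibition of binding between Rin1 and Abl proteins.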
For experiment [3], the system named is HEK293. In words: cells. Conditions: Homo sapiens.
Experiment [4] has as its system HEK293. As to the kind of experiment: cells. Conditions: Homo sapiens. The source holds these as a separate data set.
A short description of experiment [5]: A cytotoxicity screen of small molecule inhibitors of the PhoP region in Salmonella typhi identified in the primary screen. [Related pubchem assays: 1850, 1864, 1985 ]. It is filed as functional.
Experiment [6] concerns the target Heat shock protein HSP 90-alpha (Homo sapiens, UniProt P07900). Format: functional, organism-based.
Experiment [7] deals with T1, High affinity choline transporter 1 (Homo sapiens, UniProt Q9GZV3).
T1 sequence (Q9GZV3 whole entry): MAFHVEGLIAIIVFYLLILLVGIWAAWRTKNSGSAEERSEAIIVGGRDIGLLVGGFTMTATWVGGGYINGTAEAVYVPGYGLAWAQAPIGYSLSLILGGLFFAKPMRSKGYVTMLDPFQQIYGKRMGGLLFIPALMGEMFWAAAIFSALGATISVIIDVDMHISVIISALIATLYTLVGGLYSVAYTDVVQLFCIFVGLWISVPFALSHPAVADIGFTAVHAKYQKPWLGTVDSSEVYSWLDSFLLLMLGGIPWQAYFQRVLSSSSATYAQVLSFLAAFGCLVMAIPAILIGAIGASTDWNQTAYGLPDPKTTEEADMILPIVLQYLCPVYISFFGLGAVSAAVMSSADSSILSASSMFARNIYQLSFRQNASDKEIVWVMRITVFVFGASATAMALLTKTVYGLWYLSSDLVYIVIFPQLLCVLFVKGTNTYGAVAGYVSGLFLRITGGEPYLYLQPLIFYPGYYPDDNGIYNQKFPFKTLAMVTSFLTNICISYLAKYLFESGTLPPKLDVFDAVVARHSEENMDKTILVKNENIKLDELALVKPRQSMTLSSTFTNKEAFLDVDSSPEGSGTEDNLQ
As to the kind of experiment: CHT inhibitors, dose response, cell-based, 5-point CRC, membrane potential dye (AID 504840). Format: functional.

For the next experiment, the system named is H9c2. In words: cells. It is filed as functional, cell-based. Conditions: Rattus norvegicus, H9c2, Myocardium.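 Also: confirmatory concentration-response retest of ultra-high-throughput screening hits for modulation of myocardial damage; cell death induced by hydrogen peroxide oxidative stress; compound pretreatment for 60 min then peroxide exposure for 2 h; potency is for protecting the cells against peroxide damage rather than for killing them.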
Experiment [8] addresses T1, High affinity choline transporter 1. As to the kind of experiment: CHT inhibitors, dose response, cell-based, 10-point CRC, membrane potential dye (AID 588401).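 Also: membrane potential dye fluorescence of choline-evoked depolarization via CHT.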 It is filed as functional.
For experiment [9], the system named is HEK293. As to the kind of experiment: NOD1 signaling inhibitors, primary screen, cell-based, luminescence, uHTS (AID 1578). Format: functional. Conditions: Homo sapiens.
The test system of experiment [10] is HEK293. In words: cells. Format: functional, cell-based. Conditions: Homo sapiens.
The test system of experiment [11] is HEK293. In words: cells. Format: functional, cell-based. Conditions: Homo sapiens. The source holds these as a separate data set.
Experiment [12] deals with Nucleotide-binding oligomerization domain-containing protein 2 (Homo sapiens, UniProt Q9HC29). In words: NOD2 signaling inhibitors, cell-based, luminescence, uHTS, HEK293 (AID 1566). Format: functional.
Sequence of Nucleotide-binding oligomerization domain-containing protein 2 (Q9HC29 whole entry, the tested form may be a part): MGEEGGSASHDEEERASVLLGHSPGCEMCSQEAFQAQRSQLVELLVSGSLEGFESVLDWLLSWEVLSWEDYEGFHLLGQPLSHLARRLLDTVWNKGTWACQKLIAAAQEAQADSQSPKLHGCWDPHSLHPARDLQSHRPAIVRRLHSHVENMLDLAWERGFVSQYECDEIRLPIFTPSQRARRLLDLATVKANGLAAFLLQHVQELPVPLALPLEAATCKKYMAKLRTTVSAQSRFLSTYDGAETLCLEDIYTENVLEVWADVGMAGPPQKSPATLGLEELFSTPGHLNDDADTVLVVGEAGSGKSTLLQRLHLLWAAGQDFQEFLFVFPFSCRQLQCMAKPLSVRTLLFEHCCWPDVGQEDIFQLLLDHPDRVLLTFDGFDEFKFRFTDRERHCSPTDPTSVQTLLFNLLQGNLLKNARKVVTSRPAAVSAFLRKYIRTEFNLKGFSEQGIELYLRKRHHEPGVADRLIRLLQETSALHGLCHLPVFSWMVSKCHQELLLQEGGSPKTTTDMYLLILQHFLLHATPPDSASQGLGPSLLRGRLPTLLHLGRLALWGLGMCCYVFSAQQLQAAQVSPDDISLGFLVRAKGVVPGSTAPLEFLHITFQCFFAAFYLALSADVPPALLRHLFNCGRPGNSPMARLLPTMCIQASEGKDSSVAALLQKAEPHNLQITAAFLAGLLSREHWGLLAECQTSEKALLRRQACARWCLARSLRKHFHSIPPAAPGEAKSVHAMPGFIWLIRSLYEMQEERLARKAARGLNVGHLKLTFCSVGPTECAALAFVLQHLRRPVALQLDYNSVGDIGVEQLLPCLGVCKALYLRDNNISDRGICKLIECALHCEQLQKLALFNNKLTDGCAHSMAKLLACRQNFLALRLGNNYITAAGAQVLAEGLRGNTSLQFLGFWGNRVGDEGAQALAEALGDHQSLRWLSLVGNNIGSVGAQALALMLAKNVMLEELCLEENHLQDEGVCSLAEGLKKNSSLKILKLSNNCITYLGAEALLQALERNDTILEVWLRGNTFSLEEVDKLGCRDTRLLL
The subject of experiment [13] is HEK293. As to the kind of experiment: NOD2 signaling inhibitors in MDP-stimulated cells, cell-based, uHTS, luminescence (AID 2001). Format: functional. Conditions: Homo sapiens.
The subject of experiment [14] is HEK293. In words: cells. It is filed as functional, cell-based. Conditions: Homo sapiens. The source holds these as a separate data set.
The target in the next experiment is Tumor necrosis factor (Homo sapiens, UniProt P01375). In words: TNFa-triggered NF-kB activation inhibitors, SAR follow-up, cell-based, revised (AID 2337). Format: functional.
Sequence of Tumor necrosis factor (P01375 whole entry, the tested form may be a part): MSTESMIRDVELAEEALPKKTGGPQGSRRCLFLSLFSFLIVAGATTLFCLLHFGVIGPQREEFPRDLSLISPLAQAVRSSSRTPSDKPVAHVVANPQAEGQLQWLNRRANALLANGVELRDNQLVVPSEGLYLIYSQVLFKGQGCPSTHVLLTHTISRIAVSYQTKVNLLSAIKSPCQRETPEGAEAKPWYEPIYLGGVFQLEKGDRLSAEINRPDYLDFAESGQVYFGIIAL
The target in experiment [15] is T2, Nucleotide-binding oligomerization domain-containing protein 1 (Homo sapiens, UniProt Q9Y239).
T2 sequence (Q9Y239 whole entry): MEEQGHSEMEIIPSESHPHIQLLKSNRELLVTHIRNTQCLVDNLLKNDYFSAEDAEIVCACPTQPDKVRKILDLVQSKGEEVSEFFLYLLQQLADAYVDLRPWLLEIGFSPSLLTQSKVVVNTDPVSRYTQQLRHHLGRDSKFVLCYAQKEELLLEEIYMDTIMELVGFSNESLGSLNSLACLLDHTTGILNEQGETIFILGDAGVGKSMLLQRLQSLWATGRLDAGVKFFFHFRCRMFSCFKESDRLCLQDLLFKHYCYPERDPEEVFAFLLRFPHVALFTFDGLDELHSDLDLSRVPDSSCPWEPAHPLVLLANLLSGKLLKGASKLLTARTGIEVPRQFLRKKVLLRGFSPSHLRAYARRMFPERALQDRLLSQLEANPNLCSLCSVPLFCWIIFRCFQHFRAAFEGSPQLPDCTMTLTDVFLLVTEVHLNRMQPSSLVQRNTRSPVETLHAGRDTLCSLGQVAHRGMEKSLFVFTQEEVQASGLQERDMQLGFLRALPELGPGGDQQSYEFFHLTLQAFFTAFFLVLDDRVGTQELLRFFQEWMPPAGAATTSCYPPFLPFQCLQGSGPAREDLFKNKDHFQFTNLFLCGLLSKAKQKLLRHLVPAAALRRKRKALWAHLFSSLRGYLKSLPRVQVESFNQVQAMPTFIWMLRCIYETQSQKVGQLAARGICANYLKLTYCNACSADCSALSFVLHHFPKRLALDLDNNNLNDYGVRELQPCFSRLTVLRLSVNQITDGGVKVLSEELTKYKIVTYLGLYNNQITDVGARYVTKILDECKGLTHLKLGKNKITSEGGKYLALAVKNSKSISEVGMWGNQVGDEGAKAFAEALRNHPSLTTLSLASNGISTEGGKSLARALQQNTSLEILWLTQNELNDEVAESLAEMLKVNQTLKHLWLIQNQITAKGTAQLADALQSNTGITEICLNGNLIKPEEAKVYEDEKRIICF
As to the kind of experiment: NOD1 signaling inhibitors, SAR follow-up, revised (AID 2333). It is filed as functional.

In experiment [16] the test system is HEK293. As to the kind of experiment: cells. Conditions: Homo sapiens. This is another data set of the same source.
Experiment [17] relates to HEK293. In words: cells. It is filed as functional, cell-based. Conditions: Homo sapiens. The source holds these as a separate data set.
The target of experiment [18] is T3, Nuclear receptor subfamily 0 group B member 1 (Homo sapiens, UniProt P51843).
T3 sequence (P51843 whole entry): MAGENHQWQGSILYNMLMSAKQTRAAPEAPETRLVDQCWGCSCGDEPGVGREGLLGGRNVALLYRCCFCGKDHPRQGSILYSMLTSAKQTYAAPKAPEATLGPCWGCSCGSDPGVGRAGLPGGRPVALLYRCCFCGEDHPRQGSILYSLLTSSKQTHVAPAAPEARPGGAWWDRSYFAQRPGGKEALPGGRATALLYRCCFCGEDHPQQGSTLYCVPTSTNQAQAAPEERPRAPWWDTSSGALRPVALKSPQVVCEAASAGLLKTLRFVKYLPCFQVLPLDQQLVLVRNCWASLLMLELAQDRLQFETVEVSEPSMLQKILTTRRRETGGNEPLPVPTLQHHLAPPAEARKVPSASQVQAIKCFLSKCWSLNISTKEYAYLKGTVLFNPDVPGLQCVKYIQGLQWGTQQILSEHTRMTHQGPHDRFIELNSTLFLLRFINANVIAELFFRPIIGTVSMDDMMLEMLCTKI
As to the kind of experiment: Luminescence-based cell-based high throughput dose response assay for inhibitors of the orphan nuclear receptor subfamily 0, group B, member 1 (DAX1; NR0B1). [Related pubchem assays (depositor defined):AID504766, AID504790]. It is filed as functional.

Experiment [19] has as its target Tyrosine-protein kinase JAK3 (Homo sapiens, UniProt P52333). It is filed as functional.
Experiment [20] deals with BDNF/NT-3 growth factors receptor (Homo sapiens, UniProt Q16620). It is filed as functional.
Sequence of BDNF/NT-3 growth factors receptor (Q16620 whole entry): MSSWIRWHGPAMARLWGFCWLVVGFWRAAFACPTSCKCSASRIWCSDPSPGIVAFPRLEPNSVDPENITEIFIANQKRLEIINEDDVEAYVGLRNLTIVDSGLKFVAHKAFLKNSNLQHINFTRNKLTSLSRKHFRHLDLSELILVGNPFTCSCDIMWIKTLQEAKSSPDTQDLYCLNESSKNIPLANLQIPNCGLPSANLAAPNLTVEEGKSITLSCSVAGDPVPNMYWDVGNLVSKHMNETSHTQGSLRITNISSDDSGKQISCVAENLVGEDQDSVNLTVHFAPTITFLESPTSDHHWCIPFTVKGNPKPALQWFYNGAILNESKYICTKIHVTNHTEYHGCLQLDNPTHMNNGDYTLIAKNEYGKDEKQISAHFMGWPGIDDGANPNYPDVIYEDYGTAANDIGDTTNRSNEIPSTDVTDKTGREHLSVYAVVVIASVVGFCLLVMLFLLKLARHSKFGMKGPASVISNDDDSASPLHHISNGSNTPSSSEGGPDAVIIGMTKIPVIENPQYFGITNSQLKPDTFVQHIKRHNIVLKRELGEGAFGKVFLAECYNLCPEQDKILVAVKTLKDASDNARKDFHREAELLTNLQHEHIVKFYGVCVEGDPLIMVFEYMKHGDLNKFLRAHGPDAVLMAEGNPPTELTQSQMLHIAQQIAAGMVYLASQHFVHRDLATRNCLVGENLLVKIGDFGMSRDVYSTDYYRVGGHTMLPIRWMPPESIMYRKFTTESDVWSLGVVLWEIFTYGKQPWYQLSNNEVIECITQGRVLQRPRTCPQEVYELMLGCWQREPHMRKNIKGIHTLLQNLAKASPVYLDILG
Experiment [21] deals with Calcium/calmodulin-dependent protein kinase type II subunit alpha (Homo sapiens, UniProt Q9UQM7). In words: Navigating the Kinome. Panel member name: CAMK2A. Format: functional.
Sequence of Calcium/calmodulin-dependent protein kinase type II subunit alpha (Q9UQM7 whole entry): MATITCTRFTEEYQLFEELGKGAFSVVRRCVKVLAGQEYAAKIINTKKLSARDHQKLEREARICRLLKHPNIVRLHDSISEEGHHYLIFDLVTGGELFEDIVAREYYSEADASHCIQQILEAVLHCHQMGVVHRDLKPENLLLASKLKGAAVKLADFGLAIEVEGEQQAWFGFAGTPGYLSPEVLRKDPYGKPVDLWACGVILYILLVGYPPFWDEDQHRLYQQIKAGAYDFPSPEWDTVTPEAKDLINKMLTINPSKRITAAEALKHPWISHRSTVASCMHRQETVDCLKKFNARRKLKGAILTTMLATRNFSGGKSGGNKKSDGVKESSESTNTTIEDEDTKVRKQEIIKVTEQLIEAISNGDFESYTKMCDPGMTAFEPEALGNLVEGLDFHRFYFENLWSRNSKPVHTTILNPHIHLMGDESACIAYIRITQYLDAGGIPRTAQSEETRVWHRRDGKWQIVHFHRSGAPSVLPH
In experiment [22] the target is Dual specificity protein kinase CLK1 (Homo sapiens, UniProt P49759). As to the kind of experiment: CLK1 kinase inhibitors, off-target check, dose response, selectivity assay for Dyrk1A inhibitor project, biochemical, cherry-picked samples (AID 588811).
Sequence of Dual specificity protein kinase CLK1 (P49759 whole entry): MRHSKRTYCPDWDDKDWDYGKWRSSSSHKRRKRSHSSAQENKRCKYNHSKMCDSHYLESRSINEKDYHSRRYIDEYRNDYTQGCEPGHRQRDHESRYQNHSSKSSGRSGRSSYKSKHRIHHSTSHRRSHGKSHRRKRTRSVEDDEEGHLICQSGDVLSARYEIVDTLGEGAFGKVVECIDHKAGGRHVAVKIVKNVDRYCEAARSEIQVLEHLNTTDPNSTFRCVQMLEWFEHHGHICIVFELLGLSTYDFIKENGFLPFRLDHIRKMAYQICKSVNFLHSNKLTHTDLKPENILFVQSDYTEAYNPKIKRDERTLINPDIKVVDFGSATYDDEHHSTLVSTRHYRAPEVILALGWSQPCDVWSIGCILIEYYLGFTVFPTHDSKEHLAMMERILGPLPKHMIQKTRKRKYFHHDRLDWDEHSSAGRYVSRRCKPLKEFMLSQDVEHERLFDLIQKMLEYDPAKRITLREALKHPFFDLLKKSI
Experiment [23] can be described thus: Shn3 3'UTR reporter inhibitors, dose response, cell-based, Clone20 osteoblasts, firefly luciferase, cherry-picked (AID 624132).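 Also: firefly luciferase luminescence from reporter carrying the Shn3 3'UTR in osteoblasts.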 It is filed as functional.
Experiment [24] can be described thus: HepG2 cell cytotoxicity, dose response, cytotoxicity control for Shn3 inhibitor project, CellTiter-Glo, cherry-picked (AID 624134). Format: functional, cell-based.
The nature of experiment [25]: control 3'UTR Renilla luciferase suppression, dose response, counter-screen for Shn3 inhibitor project, cell-based, Clone20-Shn3RL, cherry-picked (AID 624133). Format: functional.
In experiment [26] the target is T1, High affinity choline transporter 1. In words: CHT activators, dose response, cell-based, 10-point CRC, membrane potential dye (AID 602376). Format: functional.
The target of experiment [27] is Glycogen synthase kinase-3 alpha (Homo sapiens, UniProt P49840). Format: functional.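 Also: GSK3A result taken from a broad kinome-wide kinase panel.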
Experiment [28] deals with Calcium/calmodulin-dependent protein kinase type II subunit beta (Homo sapiens, UniProt Q13554). Format: functional.
Sequence of Calcium/calmodulin-dependent protein kinase type II subunit beta (Q13554 whole entry): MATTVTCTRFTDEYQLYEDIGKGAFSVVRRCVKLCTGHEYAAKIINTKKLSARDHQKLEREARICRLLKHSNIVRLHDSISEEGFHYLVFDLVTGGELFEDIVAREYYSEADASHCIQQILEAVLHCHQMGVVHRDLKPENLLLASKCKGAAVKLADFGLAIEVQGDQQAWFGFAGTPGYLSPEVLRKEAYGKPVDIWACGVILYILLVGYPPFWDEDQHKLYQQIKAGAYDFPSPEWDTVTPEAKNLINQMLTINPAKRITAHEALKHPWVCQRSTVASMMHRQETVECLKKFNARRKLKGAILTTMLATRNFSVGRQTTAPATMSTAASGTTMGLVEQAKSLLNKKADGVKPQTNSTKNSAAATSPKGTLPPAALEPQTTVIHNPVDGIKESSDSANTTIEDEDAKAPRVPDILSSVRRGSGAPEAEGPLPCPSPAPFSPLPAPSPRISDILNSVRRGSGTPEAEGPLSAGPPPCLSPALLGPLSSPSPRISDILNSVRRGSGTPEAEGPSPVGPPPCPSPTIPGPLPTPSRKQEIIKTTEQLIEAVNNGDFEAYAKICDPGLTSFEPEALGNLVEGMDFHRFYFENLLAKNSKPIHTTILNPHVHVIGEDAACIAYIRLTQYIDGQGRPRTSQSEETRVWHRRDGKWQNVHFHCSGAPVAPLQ
The target in experiment [29] is Glycogen synthase kinase-3 beta (Homo sapiens, UniProt P49841). Format: functional.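 Also: value comes from a broad kinome profiling panel, with GSK3B as the panel member.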
Sequence of Glycogen synthase kinase-3 beta (P49841 whole entry): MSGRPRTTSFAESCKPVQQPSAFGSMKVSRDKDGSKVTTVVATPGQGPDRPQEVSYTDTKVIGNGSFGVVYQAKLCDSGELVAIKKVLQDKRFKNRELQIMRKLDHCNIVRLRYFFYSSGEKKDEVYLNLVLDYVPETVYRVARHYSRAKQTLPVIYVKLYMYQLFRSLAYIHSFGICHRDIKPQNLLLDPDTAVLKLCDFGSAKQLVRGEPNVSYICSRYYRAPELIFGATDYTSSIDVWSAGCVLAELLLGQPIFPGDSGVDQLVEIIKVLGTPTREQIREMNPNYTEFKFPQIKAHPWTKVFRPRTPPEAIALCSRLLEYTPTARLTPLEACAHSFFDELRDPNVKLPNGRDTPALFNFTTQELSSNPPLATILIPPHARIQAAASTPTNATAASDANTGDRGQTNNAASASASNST
Experiment [30] concerns the target Dual specificity tyrosine-phosphorylation-regulated kinase 1A (Homo sapiens, UniProt Q13627). Format: functional.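 Also: measured against DYRK1A as one member of a broad kinome profiling panel.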

Molecules are shown by their SMILES. “And” between values parts separate entries of the source, which are not always exact repeats. Identical values can stand only once. The source made the active and inactive calls.

Sequence of Aryl hydrocarbon receptor (P35869 whole entry): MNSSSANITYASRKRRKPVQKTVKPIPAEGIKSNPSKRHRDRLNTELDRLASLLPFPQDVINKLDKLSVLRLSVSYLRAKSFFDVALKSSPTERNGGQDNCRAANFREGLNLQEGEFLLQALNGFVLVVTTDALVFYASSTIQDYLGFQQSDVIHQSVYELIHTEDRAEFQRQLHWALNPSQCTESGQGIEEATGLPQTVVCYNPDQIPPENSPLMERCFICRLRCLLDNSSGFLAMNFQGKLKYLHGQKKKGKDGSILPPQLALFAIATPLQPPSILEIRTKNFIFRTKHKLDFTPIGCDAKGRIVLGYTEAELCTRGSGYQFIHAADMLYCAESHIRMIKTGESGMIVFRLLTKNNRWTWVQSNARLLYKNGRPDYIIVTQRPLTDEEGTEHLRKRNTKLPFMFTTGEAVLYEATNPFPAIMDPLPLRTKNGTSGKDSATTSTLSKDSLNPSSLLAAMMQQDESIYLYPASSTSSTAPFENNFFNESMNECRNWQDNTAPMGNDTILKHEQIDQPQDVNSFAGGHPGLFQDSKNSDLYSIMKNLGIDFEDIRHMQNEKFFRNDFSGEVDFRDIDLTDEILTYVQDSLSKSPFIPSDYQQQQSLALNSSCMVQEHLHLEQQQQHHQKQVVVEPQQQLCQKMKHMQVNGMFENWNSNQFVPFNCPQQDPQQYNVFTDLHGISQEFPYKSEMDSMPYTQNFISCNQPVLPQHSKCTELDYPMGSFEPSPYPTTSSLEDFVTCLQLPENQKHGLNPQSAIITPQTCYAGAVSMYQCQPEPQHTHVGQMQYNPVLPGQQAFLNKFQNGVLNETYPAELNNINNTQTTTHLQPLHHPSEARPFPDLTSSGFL

Consider `O=c1cc(-c2ccc(O)cc2)oc2cc(O)cc(O)c12` [APIGENIN], for which the AC50 in experiment [1] was 35.5 µM (inconclusive) and 28.2 µM (inconclusive).
For `Cc1ccc(C(=O)N2CCCC(CCC(=O)NCc3ccc(F)c(F)c3)C2)cn1` (centres undefined), the AC50 in the experiment on Escherichia coli is 33.1 µM (active).
Take `CC[C@]12c3[nH]c4ccc(OC)cc4c3CCN1C(=O)C(CC(=O)NCC13C[C@H]4C[C@@H](C1)C[C@@H](C3)C4)C[C@@H]2C(=O)N1CCN(C(=O)c2ccco2)CC1` (some centres undefined): in [2], the IC50 is 4.2 µM (active). Also, the EC50 in the experiment on HEK293 [3] and in the experiment with HEK293 [4] was > 59.6 µM (inactive) throughout.
For the compound `C=CCC[C@H](Cc1ccc(F)cc1)C(=O)OC[C@@H](C)NC(=O)[C@H](CC=C)CC(=O)NCCO`, in the experiment on Escherichia coli, the AC50 was > 150 µM (inactive).
As to `Cc1c(/N=C/c2cc(Br)cc(Br)c2O)cccc1C(=O)O`, in experiment [5], the half-maximal effective concentration (EC50) was > 50 µM (active). Besides, in experiment [6], the concentration at half-maximal activity (AC50) is 3.56 µM (active). For the same compound, the results for the half-maximal inhibitory concentration (IC50) (in experiment [7]; in the experiment with H9c2; in [8]) were 3.44 µM (active), 20 µM (active) and 2.67 µM (active), respectively.
As for `COc1ccc(CN(C)S(=O)(=O)c2nnc(NC(=O)c3cccc(F)c3)s2)cc1`, the EC50 is 1.8 µM (active) with HEK293 [9] and 12.7 µM (active) in [12]. Moreover, the IC50 in the experiment on HEK293 [10] is 17.1 µM (active); with HEK293 [11] it was > 20 µM (inactive); in the experiment with HEK293 [13], 12.3 µM (inactive); with HEK293 [14] it was > 20 µM (inactive); on Tumor necrosis factor it was 8.03 µM (active); in experiment [15], 6.74 µM (active). Also, in the experiment on HEK293 [16], the IC50 was > 20 µM (inactive).
In the case of `CC1=C(C(=O)OCC2CCCO2)C(c2coc3ccc(Cl)cc3c2=O)C2=C(O)CCCC2=N1` (centres undefined), the IC50 (in the experiment with HEK293 [17]; in [18]) was > 67.5 µM (inactive) each time.
As for `Clc1cccc(Nc2nc(N3CCOCC3)nc(-n3cccn3)n2)c1`, the Ki in experiment [19] was 3.16 µM (active); in experiment [20], 3.16 µM (active); in [21], 2.51 µM (active).
With `c1nc(NCC2CCCO2)c2cc(-c3ccc4c(c3)OCO4)ccc2n1` (centres undefined), the AC50 in experiment [22] was 0.0113 µM (active).
Consider `O=c1c2ccccc2[nH]c(=S)n1CCN1CCCCC1`, for which the IC50 was 8.77 µM (active) in [7] and 7.94 µM (active) in experiment [8].
Regarding `O=C(NCc1ccco1)/C(=C\C=C\c1ccccc1)NC(=O)c1ccco1`, the IC50 (in the experiment on HEK293 [17]; in experiment [18]) was > 67.5 µM (inactive) throughout.
With `Cc1ccsc1CNc1ncnc2ccc(-c3ccc4c(c3)OCO4)cc12`, the AC50 in [22] is 0.00994 µM (active).
With `CCN(CC)CCn1c(=N)n(CC(O)COc2cccc(C)c2)c2ccccc21` (centres undefined), the half-maximal activity concentration (AC50) in experiment [23] was 4.39 µM (active); in [24] it was 21.2 µM (active); in [25] it was 7.45 µM (active). The EC50 in experiment [26] is 12.4 µM (active).
Regarding `O=C1CN=C(c2cccc(Cl)c2)c2c(sc3c2CCCC3)N1`, the inhibition constant Ki is 3.98 µM (active) in experiment [27], 6.31 µM (active) in [28], 3.16 µM (active) in [29] and 2.51 µM (active) in experiment [30].

The values are drawn from ChEMBL document CHEMBL1201862, “PubChem BioAssay data set” (2004).
